Reference: US20190225650A1, “PEPTIDOMIMETIC MACROCYCLES AND USE THEREOF IN REGULATING HIF1ALPHA” (AILERON THERAPEUTICS, INC., priority 2013, published 2019)
Bridge positions count the residues as written; N and C are the ends. Square brackets hold non-standard residues; d marks the D form. Peptide text beside a SMILES is read from it. S5 = C=CCCC[C@](C)(N)C(=O)O

Experiments:
[1] = system: HRE-bla ME-180 cells; test: Cell proliferation assay (viability, MTT, 1% FBS); type: cell-based, human
Procedure, shortened: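 ME-180 cells (2×10^4/well) in Opti-MEM with 1% FBS were pretreated 16 h under normoxia (21% O2), vehicle 0.5% DMSO final. Incubation then continued under normoxia or hypoxia (1% O2); viable cells quantified by MTT-type CellTiter 96 assay.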

[2] = biological target: T1, flag-tagged HIF1α (AA 786-826) / His6-tagged p300 (AA 323-423) complex (Homo sapiens, UniProt Q09472); test: HIF1α p300 displacement assay (TR FRET, +CHAPS); type: binding; conditions: read-out: IC50 (nM) (HIF1α_p300 Displacement + CHAPS)
T1 construct: His6-tagged p300 (AA 323-423); made in house; host or cells: E. coli (pETDuet vector)
Procedure, shortened: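 The co-expressed flag-HIF1α (786-826)/His6-p300 (323-423) complex, purified from E. coli with 0.1 mM ZnSO4, was used at 300 nM final with competitor peptides for 1 h at room temperature. Buffer was 150 mM NaCl, 20 mM HEPES pH 7.4, 7.5 mM CHAPS and 1 mM DTT. Anti-Flag-K (0.5 μM) and anti-His-D2 (4 nM) were then added for 2 h, and IC50s were fitted from the TR-FRET ratio.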

[3] = system: HRE-bla ME-180 cells; test: Reporter gene assay (HRE-bla ME-180 HIF reporter, GeneBLAzer); type: cell-based, human; conditions: for EC50: 24 hour normoxia
Procedure, shortened: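 A FRET β-lactamase readout of HIF transcription was used. After compound treatment in 0.3% DMSO/media under normoxic conditions, 20 μl of 6× LiveBLAzer-FRET B/G (CCF4-AM) substrate was added. Plates sat 3 hr at room temperature in the dark and were read at 409 Ex/460Em and 409Ex/530Em on a Synergy 2. Inhibition was compared against DMSO vehicle controls, with chetomin as positive control.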

IC50 [2] [nM]	EC50 [3] [µM]	Structure (SMILES)	Viability 1% FBS AVG (MTT V3-24 hr Normoxia) (μM) [1]	18 h Avg % max inhibition at top conc (HIF Rptr-24 hrs normoxia) (μM) [3]
> 700	> 30	CC[C@H](C)[C@H](NC(=O)[C@H](CCCNC(=N)N)NC(=O)[C@H](CC(=O)O)NC(=O)[C@H](CC(C)C)NC(=O)[C@H](C)NC(=O)[C@H](CCSC)NC(=O)[C@]1(C)CCCC=CCCC[C@](C)(NC(=O)[C@H](CCSC)NC(=O)[C@H](CC(C)C)NC(=O)[C@@H](NC(=O)[C@H](CCCCN)NC(=O)[C@H](CCC(=O)O)NC(=O)[C@H](CC(N)=O)NC(=O)[C@@H](NC(=O)[C@H](Cc2ccccc2)NC(C)=O)[C@@H](C)CC)C(C)C)C(=O)N[C@@H](CC(C)C)C(=O)N[C@@H](C(C)C)C(=O)N[C@@H]([C@@H](C)CC)C(=O)N1)C(N)=O [SP-285] (Ac-FINEKVLM[S5]LVI[S5]MALDRI-NH2; staple 9-13)	++++ (≥30: ++++)	+++ (≤25 but <50: +++)
> 700	> 30	CC[C@H](C)[C@H](NC(=O)[C@H](CCCNC(=N)N)NC(=O)[C@H](CC(=O)O)NC(=O)[C@H](CC(C)C)NC(=O)[C@H](C)NC(=O)[C@H](CCSC)NC(=O)[C@]1(C)CCCC=CCCC[C@](C)(NC(=O)[C@H](CCSC)NC(=O)[C@H](CC(C)C)NC(=O)[C@@H](NC(=O)[C@H](Cc2c[nH]cn2)NC(=O)[C@H](CCC(=O)O)NC(=O)[C@H](CC(N)=O)NC(=O)[C@@H](NC(=O)[C@H](Cc2ccccc2)NC(C)=O)[C@@H](C)CC)C(C)C)C(=O)N[C@@H](CC(C)C)C(=O)N[C@@H](C(C)C)C(=O)N[C@@H]([C@@H](C)CC)C(=O)N1)C(N)=O [SP-286] (Ac-FINEHVLM[S5]LVI[S5]MALDRI-NH2; staple 9-13)	++++ (≥30: ++++)	++ (≤10 but <25: ++)
> 700	5 to 15	CC[C@H](C)[C@H](NC(=O)[C@H](Cc1ccccc1)NC(C)=O)C(=O)N[C@@H](CC(=O)O)C(=O)N[C@@H](CCC(=O)O)C(=O)N[C@@H](CCC(=O)O)C(=O)N[C@H](C(=O)N[C@@H](CC(C)C)C(=O)N[C@@H](CCSC)C(=O)N[C@@]1(C)CCCC=CCCC[C@@](C)(C(=O)N[C@@H](CCSC)C(=O)N[C@@H](C)C(=O)N[C@@H](CC(C)C)C(=O)N[C@@H](CO)C(=O)N[C@@H](CCCNC(=N)N)C(N)=O)NC(=O)[C@H]([C@@H](C)CC)NC(=O)[C@H](C(C)C)NC(=O)[C@H](CC(C)C)NC1=O)C(C)C [SP-287] (Ac-FIDEEVLM[S5]LVI[S5]MALSR-NH2; staple 9-13)	++++ (≥30: ++++)	++++ (≥50: ++++)
> 700	> 30	CC[C@H](C)[C@H](NC(=O)[C@H](Cc1ccccc1)NC(C)=O)C(=O)N[C@@H](CC(N)=O)C(=O)N[C@@H](CCC(=O)O)C(=O)N[C@@H](CCCCN)C(=O)N[C@H](C(=O)N[C@@H](CC(C)C)C(=O)N[C@@H](CCSC)C(=O)N[C@@]1(C)CCCC=CCCC[C@@](C)(C(=O)N[C@@H](CCSC)C(=O)N[C@@H](C)C(=O)N[C@@H](CC(C)C)C(=O)N[C@@H](CO)C(=O)N[C@@H](CCCNC(=N)N)C(N)=O)NC(=O)[C@H]([C@@H](C)CC)NC(=O)[C@H](C(C)C)NC(=O)[C@H](CC(C)C)NC1=O)C(C)C [SP-288] (Ac-FINEKVLM[S5]LVI[S5]MALSR-NH2; staple 9-13)	++++ (≥30: ++++)	+ (<10: +)
